Source: patent US8957093B2, “N-biphenylmethylindole modulators of PPARG” (The Scripps Research Institute, priority 2011, dated 2015)
Where two headings read alike, the source gives them in different places.

How the values were obtained:
GST-PPARG-LBD = GST-PPARG-LBD (Homo sapiens (Human), UniProt P37231); assay: Lanthascreen PPARG competitive binding assay (Invitrogen, TR-FRET); conditions: inc = incomplete curve, NA = not active, read-out: IC50 (nM) Lantha
In short: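 TR-FRET competitive binding of GST-PPARG-LBD with 5 nM Tb-GST-antibody and 5 nM Fluormone Pan-PPAR Green tracer, in TR-FRET buffer C. Compound serially diluted from 10 μM, 2 h dark incubation, in triplicate. Readout is 520/490 nm emission ratio (340 nm excitation), expressed as fold change over 2% DMSO control.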

[1] = target: Gal-4-PPAR (human PPAR LBD fused to GAL4 DNA-binding domain) (Homo sapiens (Human), UniProt P37231); assay: GAL4-PPARG LBD / UAS-luciferase transactivation assay in HEK 293T cells; assay type: cell-based
Sequence of Gal-4-PPAR (human PPAR LBD fused to GAL4 DNA-binding domain) (P37231 238-503): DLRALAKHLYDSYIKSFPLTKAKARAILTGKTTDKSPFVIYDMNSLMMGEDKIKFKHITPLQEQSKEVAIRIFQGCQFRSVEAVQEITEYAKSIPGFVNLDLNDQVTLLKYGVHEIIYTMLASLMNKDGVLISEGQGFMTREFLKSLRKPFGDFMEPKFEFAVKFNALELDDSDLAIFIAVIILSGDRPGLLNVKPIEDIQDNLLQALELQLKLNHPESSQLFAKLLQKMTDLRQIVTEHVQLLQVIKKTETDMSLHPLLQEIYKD

[2] = Lanthascreen PPARG competitive binding
[3] = GAL4 transactivation; read-out: EC50 (nM) GAL4
[4] = HEK-293T, 18 h; read-out: % transactivation at 10 μM (GAL4)
[5] = Lanthascreen competitive binding
[6] = GAL4 transactivation, HEK 293T cells; NA = not active; read-out: EC50 (nM) GAL4
[7] = HEK-293T, 18 h, read-out: % transactivation at 10 μM (GAL4)

Sequence of GST-PPARG-LBD (P37231 238-503): as above

Row | SMILES | IC50 (GST-PPARG-LBD; [2]) [nM] | EC50 [1, 3] [nM] | activation at 10 µM [1, 4] [%] | IC50 (GST-PPARG-LBD; [5]) [nM] | EC50 [1, 6] [nM] | activation at 10 µM [1, 7] [%] | EC50 [1] [nM]
1 | Cc1c(C)n(Cc2ccc(-c3ccccc3C(=O)O)cc2)c2ccc(C(=O)N[C@@H](C)c3cccc(Br)n3)cc12 [Example 273, (S)-4′-((5-(1-(6-bromopyridin-2-yl)ethylcarbamoyl)-2,3-dimethyl-1H-indol-1-yl)methyl)biphenyl-2-carboxylic acid] | 15 | 294 | 30 |  |  |  | 
2 | Cc1c(C)n(Cc2ccc(-c3ccccc3C(=O)O)cc2)c2ccc(C(=O)N[C@@H](C)c3cccc(F)c3F)cc12 [Example 229, (S)-4′-((5-((1-(2,3-difluorophenyl)ethyl)carbamoyl)-2,3-dimethyl-1H-indol-1-yl)methyl)-[1,1′-biphenyl]-2-carboxylic acid] |  |  | 30 | 9 | 354 |  | 
3 | Cc1cc(Cl)ccc1[C@H](C)NC(=O)c1ccc2c(c1)c(C)c(C)n2Cc1ccc(-c2ccccc2C(=O)O)cc1 [Example 226, (S)-4′-((5-((1-(4-chloro-2-methylphenyl)ethyl)carbamoyl)-2,3-dimethyl-1H-indol-1-yl)methyl)-[1,1′-biphenyl]-2-carboxylic acid] |  |  | 20 | 11 | 172 |  | 
4 | Cc1c(C)n(Cc2ccc(-c3ccccc3C(=O)O)cc2)c2ccc(C(=O)N[C@@H](C)c3ccc(F)cc3C(F)(F)F)cc12 [Example 227, (S)-4′-((5-((1-(4-fluoro-2-(trifluoromethyl)phenyl)ethyl)carbamoyl)-2,3-dimethyl-1H-indol-1-yl)methyl)-[1,1′-biphenyl]-2-carboxylic acid] |  |  |  | 36 | 173 | 20 | 
5 | Cc1c(C)n(Cc2ccc(-c3ccccc3C(=O)O)cc2)c2ccc(C(=O)N[C@H](C)c3cc(C(F)(F)F)ccc3C(F)(F)F)cc12 [Example 173, (R)-4′-((5-((1-(2,5-bis(trifluoromethyl)phenyl)ethyl)carbamoyl)-2,3-dimethyl-1H-indol-1-yl)methyl)-[1,1′-biphenyl]-2-carboxylic acid] |  |  | 1 | 4 | 161 |  | 
6 | Cc1c(C)n(Cc2ccc(-c3ccccc3C(=O)O)cc2)c2ccc(C(=O)N[C@H](C)c3ccnc(Br)c3)cc12 [Example 269, (R)-4′-((5-(1-(2-bromopyridin-4-yl)ethylcarbamoyl)-2,3-dimethyl-1H-indol-1-yl)methyl)biphenyl-2-carboxylic acid] |  |  | 40 | 8 | 907 |  | 
7 | Cc1c(C)n(Cc2ccc(-c3ccccc3C(=O)O)cc2)c2ccc(C(=O)N[C@H](C)c3ccnc4ccccc34)cc12 [Example 181, (R)-4′-((2,3-dimethyl-5-((1-(quinolin-4-yl)ethyl)carbamoyl)-1H-indol-1-yl)methyl)-[1,1′-biphenyl]-2-carboxylic acid] |  |  | 40 | 512 | 5240 |  | 
8 | CCCc1ccc([C@H](C)NC(=O)c2ccc3c(c2)c(C)c(C)n3Cc2ccc(-c3ccccc3C(=O)O)cc2)cc1 [Example 251, (S)-4′-((2,3-dimethyl-5-(1-(4-propylphenyl)ethylcarbamoyl)-1H-indol-1-yl)methyl)biphenyl-2-carboxylic acid] |  |  | 30 | 40 | 1610 |  | 
9 | Cc1c(C)n(Cc2ccc(-c3ccccc3C(=O)O)cc2)c2ccc(C(=O)N[C@H](C)c3ccc(C(F)(F)F)cc3C(F)(F)F)cc12 [Example 209, (R)-4′-((5-((1-(2,4-bis(trifluoromethyl)phenyl)ethyl)carbamoyl)-2,3-dimethyl-1H-indol-1-yl)methyl)-[1,1′-biphenyl]-2-carboxylic acid] |  |  | 10 | 11 | 211 |  | 
10 | Cc1c(C)n(Cc2ccc(-c3ccccc3C(=O)O)cc2)c2ccc(C(=O)N[C@@H](C)c3ccc(F)c(F)c3)cc12 [Example 233, (S)-4′-((5-((1-(3,4-difluorophenyl)ethyl)carbamoyl)-2,3-dimethyl-1H-indol-1-yl)methyl)-[1,1′-biphenyl]-2-carboxylic acid] |  |  | 40 | 9 | 166 |  | 
11 | Cc1c(C)n(Cc2ccc(-c3ccccc3C(=O)O)cc2)c2ccc(C(=O)N[C@@H](C)c3ccccc3F)cc12 [Example 160, (S)-4′-((5-((1-(2-fluorophenyl)ethyl)carbamoyl)-2,3-dimethyl-1H-indol-1-yl)methyl)-[1,1′-biphenyl]-2-carboxylic acid] |  |  |  | 7 | 383 | 35 | 
12 | Cc1c(C)n(Cc2ccc(-c3ccccc3C(=O)O)cc2)c2ccc(C(=O)N[C@@H](C)c3cccc(C(F)(F)F)c3F)cc12 [Example 299, (S)-4′-((5-((1-(2-Fluoro-3-(trifluoromethyl)phenyl)ethyl)carbamoyl)-2,3-dimethyl-1H-indol-1-yl)methyl)-[1,1′-biphenyl]-2-carboxylic acid] | 27 | 346 | 15 |  |  |  | 
13 | CC[C@H](NC(=O)c1ccc2c(ccn2Cc2ccccc2-c2cccc(C(=O)O)c2)c1)c1ccccc1 [Example 191, (S)-2′-((5-((1-phenylpropyl)carbamoyl)-1H-indol-1-yl)methyl)-[1,1′-biphenyl]-3-carboxylic acid] |  |  | 20 | 80 | 1000 |  | 
14 | Cc1c(C)n(Cc2ccc(-c3ccccc3C(=O)O)cc2)c2ccc(C(=O)N[C@@H](C)C3COc4ccccc4O3)cc12 (stereo partly drawn) [Example 214, 4′-((5-(((1S)-1-(2,3-dihydrobenzo[b][1,4]dioxin-2-yl)ethyl)carbamoyl)-2,3-dimethyl-1H-indol-1-yl)methyl)-[1,1′-biphenyl]-2-carboxylic acid] |  |  | 20 | 25 | 2350 |  | 
15 | Cc1c(C)n(Cc2ccc(-c3ccccc3C(=O)O)cc2)c2ccc(C(=O)N[C@@H](C)c3ccccc3C(F)(F)F)cc12 [Example 208, (S)-4′-((2,3-dimethyl-5-((1-(2-(trifluoromethyl)phenyl)ethyl)carbamoyl)-1H-indol-1-yl)methyl)-[1,1′-biphenyl]-2-carboxylic acid] |  |  | 20 | 22 | 369 |  | 
16 | Cc1c(C)n(Cc2ccc(-c3ccccc3C(=O)O)cc2)c2ccc(C(=O)N[C@@H](C)c3ccc(C4CC4)cc3)cc12 [Example 304, (S)-4′-((5-((1-(4-Cyclopropylphenyl)ethyl)carbamoyl)-2,3-dimethyl-1H-indol-1-yl)methyl)-[1,1′-biphenyl]-2-carboxylic acid] | 50 | 2420 | 15 |  |  |  | 
17 | Cc1c(C)n(Cc2ccc(-c3ccccc3C(=O)O)cc2)c2ccc(C(=O)N[C@@H](C)c3cccc(C(F)(F)F)c3Cl)cc12 [Example 230, (S)-4′-((5-((1-(2-Chloro-3-(trifluoromethyl)phenyl)ethyl)carbamoyl)-2,3-dimethyl-1H-indol-1-yl)methyl)-[1,1′-biphenyl]-2-carboxylic acid] |  |  |  | 103 | 709 | 20 | 
18 | Cc1c(C)n(Cc2ccc(-c3ccccc3C(=O)O)cc2)c2ccc(C(=O)N[C@@H](C)c3c(F)cccc3C(F)(F)F)cc12 [Example 300, (S)-4′-((5-((1-(2-Fluoro-6-(trifluoromethyl)phenyl)ethyl)carbamoyl)-2,3-dimethyl-1H-indol-1-yl)methyl)-[1,1′-biphenyl]-2-carboxylic acid] | 9 | 167 | 15 |  |  |  | 
19 | Cc1c(C)n(Cc2ccc(-c3ccccc3C(=O)O)cc2)c2ccc(C(=O)N[C@H](C)c3cccc(C(F)(F)F)c3Cl)cc12 [Example 231, (R)-4′-((5-((1-(2-chloro-3-(trifluoromethyl)phenyl)ethyl)carbamoyl)-2,3-dimethyl-1H-indol-1-yl)methyl)-[1,1′-biphenyl]-2-carboxylic acid] |  |  |  | 2 | 131 | 10 | 
20 | Cc1c(C)n(Cc2ccc(-c3ccccc3-c3noc(=O)[nH]3)cc2)c2ccc(C(=O)N[C@@H](C)c3cccc(C(C)C)c3)cc12 [Example 244, (S)—N-(1-(3-isopropylphenyl)ethyl)-2,3-dimethyl-1-((2′-(5-oxo-4,5-dihydro-1,2,4-oxadiazol-3-yl)-[1,1′-biphenyl]-4-yl)methyl)-1H-indole-5-carboxamide] |  |  | 8 | 40 |  |  | 921
21 | Cc1c(C)n(Cc2ccc(-c3ccccc3C(=O)O)cc2)c2ccc(C(=O)N[C@@H](C)c3ccnc(C4CC4)c3)cc12 [Example 268, (S)-4′-((5-(1-(2-cyclopropylpyridin-4-yl)ethylcarbamoyl)-2,3-dimethyl-1H-indol-1-yl)methyl)biphenyl-2-carboxylic acid] |  |  | 20 | 352 | 8970 |  | 
22 | Cc1c(C)n(Cc2ccc(-c3ccccc3C(=O)O)cc2)c2ccc(C(=O)N[C@@H](C)c3ccc(Br)cn3)cc12 [Example 260, (S)-4′-((5-((1-(5-bromopyridin-2-yl)ethyl)carbamoyl)-2,3-dimethyl-1H-indol-1-yl)methyl)-[1,1′-biphenyl]-2-carboxylic acid] |  |  | 25 | 2 | 42 |  | 
23 | Cc1c(C)n(Cc2ccc(-c3ccccc3C(=O)O)cc2)c2ccc(C(=O)N[C@@H](C)c3ccc(Cl)cc3Cl)cc12 [Example 303, (S)-4′-((5-((1-(2,4-Dichlorophenyl)ethyl)carbamoyl)-2,3-dimethyl-1H-indol-1-yl)methyl)-[1,1′-biphenyl]-2-carboxylic acid] | 4 | 219 | 25 |  |  |  | 
